The test system of series [1] is CT26.DLL3 cells. Kind of series: Internalization (out of bound fraction) of [177Lu]Lu-test peptide, CT26.DLL3 cells. It is filed as cell-based. The settings on record: 1 hour at 37° C., glycine pH 2.5 wash. The method, boiled down:
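[177Lu]Lu-peptide (labelled at 80 °C, pH ~5, 17-20 min) incubated with 5-25 million CT26.DLL3 cells in 1% PBSA, 0.8 μCi, 1 h at 37 °C. Surface-bound activity stripped twice with 50 mM glycine pH 2.5, 3 min; NaOH-solubilized cell activity gamma-counted as internalized fraction, binned ≤25%, 25-50%, >50%.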

The target of series [2] is T1, human DLL3 (Homo sapiens, UniProt Q9NYJ7).
T1 sequence (Q9NYJ7 27-618): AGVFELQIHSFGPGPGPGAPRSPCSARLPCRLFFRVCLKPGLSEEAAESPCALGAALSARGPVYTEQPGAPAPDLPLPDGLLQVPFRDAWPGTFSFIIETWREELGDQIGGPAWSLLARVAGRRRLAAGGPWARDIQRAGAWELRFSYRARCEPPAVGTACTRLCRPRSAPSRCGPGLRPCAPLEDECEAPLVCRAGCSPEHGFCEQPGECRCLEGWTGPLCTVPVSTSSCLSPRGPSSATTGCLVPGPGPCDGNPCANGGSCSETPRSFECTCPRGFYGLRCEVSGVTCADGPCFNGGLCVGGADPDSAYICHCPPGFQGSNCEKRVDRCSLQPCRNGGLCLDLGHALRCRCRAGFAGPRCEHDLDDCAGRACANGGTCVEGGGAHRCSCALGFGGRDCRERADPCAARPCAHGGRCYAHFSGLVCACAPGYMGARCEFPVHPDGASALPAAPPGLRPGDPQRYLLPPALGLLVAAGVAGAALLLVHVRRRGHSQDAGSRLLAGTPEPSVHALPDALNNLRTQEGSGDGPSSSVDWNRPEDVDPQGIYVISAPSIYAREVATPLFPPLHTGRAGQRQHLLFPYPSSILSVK
Description: Affinity determination by Surface Plasmon Resonance (SPR). The note with it: 25° C., biotinylated human DLL3 immobilized on streptavidin sensor chip, 1:1 binding model; read-out: SPR KD. It is filed as binding. The method, boiled down: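 Kinetic and affinity constants were derived by fitting sensorgrams to a 1:1 binding model. Graded compound concentrations flowed at 100 μL/minute in 20 mM phosphate running buffer with 2% DMSO over streptavidin-immobilized biotinylated human DLL3, reference-subtracted.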

In series [3] the test system is SHP-77 cells. Kind of series: Cell binding (total uptake) of [177Lu]Lu-test peptide, SHP-77 cells. It is filed as cell-based. The settings on record: SHP77 cells, 1 hour at 37° C., bound fraction. The procedure:
[^177Lu]LuCl3 was received from venders in HCl solution. For every mCi of [^177Lu]LuCl3 added to the reaction vial (1.5 mL Eppendorf vial), ammonium acetate buffer (0.2 M, pH 4.9, 100 μL, containing 1% w/v ascorbic acid and 6% v/v ethanol) and peptide conjugate (1 nmol). A peptide conjugate of the present disclosure is also referred to herein as a “chelator-peptide”. The pH of the solution was determined to be approximately 5 by using pH strips. The reaction vial was incubated at 80° C., 700 RPM for 17-20 minutes. A sample from the reaction was analyzed by RP-HPLC using an Agilent Infinity II 1260 HPLC to determine reaction completion and radiochemical purity of [^177Lu]Lu-chelator-peptide. HPLC conditions: Waters XBridge BEH C18 Column, 130 Å, 3.5 um, 4.6 mm×250 mm; mobile phase: Solvent A=water (with 0.1% formic acid), solvent B=acetonitrile (with 0.1% formic acid). Gradients: 25-45% B in 10 minutes, 45-65% B in 12 minutes, 65-90% in 6 minutes at a flow rate of 0.5 mL/minute. Required amounts of the product was formulated in 1% PBSA for cell studies.
The study was conducted using SHP-77, CT26.WT, and CT26.DLL3 cells (Table 7) Adherent cell studies: The cells were cultured in appropriate culture media (20 mL) in tissue culture treated T150 flasks at 37° C. and 5% CO2. Adherent cells were detached (60-70% confluent) using 5 mL Versene at 37° C. for 3 minutes. After confirming the viability using countess and count of detached cells using Trypan blue, the cells were centrifuged at 4° C. for 5 minutes (1,000 rpm). The cell pellet obtained was washed once with PBS and resuspended in 1% PBSA to obtain the desired cell concentration (5-25 million cells/mL).
Suspension cell studies: The cells were cultured in appropriate culture media (20 mL) in tissue culture treated T150 flasks at 37° C. and 5% CO2. After confirming the viability and count of detached cells using Trypan blue, the cells were centrifuged at 4° C. for 5 minutes (1,000 rpm). The cell pellet obtained was washed once with PBS and resuspended in 1% PBSA to obtain the desired cell concentration (5-25 million cells/mL).
Cell numbers used for the assay were in the range of 5 million cells/condition −25 million cells/condition.
Total uptake: Cells were incubated with 300 μL (0.8 μCi) of the incubation buffer (containing radiolabeled peptide [^177Lu] Lu-test peptide) for 1 hour at 37° C. (Table 8). Post incubation, the cells were pelleted and washed 2 times using cold PBS+1% BSA. The supernatant and washes were combined and counted together as “unbound fraction” in a gamma counter. The cells were then resuspended in 300 μL of 1% PBS+1% BSA and counted in the gamma counter as “bound fraction”.
In these Tables, “A” represents %≤25; “B” represents 25<%≤50; “C” represents %>50.

Series [4] concerns CT26.DLL3 cells. Description: Cell binding (total uptake) of [177Lu]Lu-test peptide, CT26.DLL3 cells. It is filed as cell-based. The settings on record: 1 hour at 37° C. The method, boiled down: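 CT26.DLL3 cells (5–25 million/condition) in 1% PBSA incubated 1 h at 37°C with [177Lu]Lu-labelled peptide (0.8 μCi in 300 μL), radiolabelled at pH ~5, 80°C. Cells pelleted, washed twice with cold PBS+1% BSA; bound and unbound fractions gamma-counted, uptake binned as ≤25%, 25–50%, >50%.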

The test system of series [5] is SHP-77 cells. Description: Internalization (out of bound fraction) of [177Lu]Lu-test peptide, SHP-77 cells. It is filed as cell-based. The settings on record: SHP77 cells, 1 hour at 37° C., after 50 mM Glycine pH=2.5 wash. Here is the method:
[^177Lu]LuCl3 was received from venders in HCl solution. For every mCi of [^177Lu]LuCl3 added to the reaction vial (1.5 mL Eppendorf vial), ammonium acetate buffer (0.2 M, pH 4.9, 100 μL, containing 1% w/v ascorbic acid and 6% v/v ethanol) and peptide conjugate (1 nmol). A peptide conjugate of the present disclosure is also referred to herein as a “chelator-peptide”. The pH of the solution was determined to be approximately 5 by using pH strips. The reaction vial was incubated at 80° C., 700 RPM for 17-20 minutes. A sample from the reaction was analyzed by RP-HPLC using an Agilent Infinity II 1260 HPLC to determine reaction completion and radiochemical purity of [^177Lu]Lu-chelator-peptide. […]
Total uptake: Cells were incubated with 300 μL (0.8 μCi) of the incubation buffer (containing radiolabeled peptide [^177Lu] Lu-test peptide) for 1 hour at 37° C. […] The supernatant and washes were combined and counted together as “unbound fraction” in a gamma counter. The cells were then resuspended in 300 μL of 1% PBS+1% BSA and counted in the gamma counter as “bound fraction”.
Internalization: The resuspended cells in 300 μl of 1% PBSA and counted in the gamma counter as “bound fraction” were collected in 1.5 mL Eppendorf tube and pelleted. […] This was counted in the gamma counter as “internalized fraction”. […]

For series [6], the system named is SHP-77 tumors. Description: Ex vivo biodistribution of radiolabeled peptides in nude mice bearing SHP-77 tumors. The settings on record: [177Lu]Lu labelling, nude mice bearing SHP-77 tumors (n = 3), 24 hours post-injection. In a few lines: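 Nude mice bearing SHP-77 xenografts (200-400 mm^3) or tumor-naïve mice (5-7 weeks) received an intravenous tail-vein bolus of [^177Lu]Lu-peptide and were euthanized at pre-set time points. Tissues were weighed and gamma-counted, with counts decay-corrected to injection time. Values are % IA/g per tissue from the injected activity of each mouse.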

The target of series [7] is T2, Biotinylated human DLL3 (Delta Like Canonical Notch Ligand 3) (human, UniProt Q9NYJ7 27-492, limits assumed, biotinylated (site not stated)).
T2 construct: also called Delta-like protein 3; biotinylated target ligand human DLL3
T2 sequence: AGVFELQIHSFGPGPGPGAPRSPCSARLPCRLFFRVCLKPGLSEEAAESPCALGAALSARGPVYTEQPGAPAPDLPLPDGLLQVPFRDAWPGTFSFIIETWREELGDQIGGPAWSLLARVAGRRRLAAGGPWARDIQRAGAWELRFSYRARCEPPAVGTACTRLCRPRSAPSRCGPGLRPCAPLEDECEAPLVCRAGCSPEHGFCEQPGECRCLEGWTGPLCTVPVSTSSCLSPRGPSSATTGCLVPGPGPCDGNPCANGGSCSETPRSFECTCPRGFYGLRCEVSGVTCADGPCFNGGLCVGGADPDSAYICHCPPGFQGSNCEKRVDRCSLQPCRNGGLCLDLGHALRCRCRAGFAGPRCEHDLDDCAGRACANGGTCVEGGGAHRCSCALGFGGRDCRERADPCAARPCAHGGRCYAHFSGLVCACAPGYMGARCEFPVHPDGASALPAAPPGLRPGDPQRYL
Kind of series: SPR; letter grade, key in paragraph 614; upper limit of grade B. The procedure:
(§1) Biotinylated target ligand human DLL3 was immobilized on a streptavidin sensor chip. A reference surface was set up for nonspecific binding and refractive index changes. For analysis of the kinetics of interactions, varying concentrations of samples were injected at a flow rate of 100 μL/minute using running buffer containing 20 mM phosphate buffer with 2.7 mM KCl, 137 mM NaCl, 0.05% Surfactant P20 and 2% DMSO. Sensorgram curves were fitted with 1:1 binding model, and affinity and kinetic parameters were obtained using Biacore Insight evaluation 4.0. software.
(In general: In SPR one partner is held on a chip, and binding of the other changes the refractive index at the surface.)

Series [8] concerns the target T2, Biotinylated human DLL3 (Delta Like …). Description: SPR; letter grade, key in paragraph 614; lower limit of grade B. Here is the method: as §1
The target in series [9] is Biotinylated human DLL3 (Delta Like Canonical Notch Ligand 3) (human) (UniProt Q9NYJ7). Description: SPR; letter grade, key in paragraph 614.

Numbered stars: 1 amine (or outer) side, 2 acyl side, 3 side chain; on linkers, the order of the positions; unused ones are H or OH. Bridge positions count the residues as written; N and C are the ends. Square brackets hold non-standard residues; d marks the D form. Peptide text beside a SMILES is read from it. * marks the point of attachment. Ala(piperidin-4-yl) = O=C([C@H](CC1CCN([*:3])CC1)N[*:1])[*:2]; DOTA = O=C(O)CN1CCN(CC(=O)O)CCN(CC(=O)*)CCN(CC(=O)O)CC1; Trp(5-F) = N[C@@H](Cc1c[nH]c2ccc(F)cc12)C(=O)O; Trp(7-aza) = N[C@@H](Cc1c[nH]c2ncccc12)C(=O)O; Pro(trans-4-F) = O=C(O)[C@@H]1C[C@@H](F)CN1; 2Nal = N[C@@H](Cc1ccc2ccccc2c1)C(=O)O; Cha = N[C@@H](CC1CCCCC1)C(=O)O; Lauroyl = CCCCCCCCCCCC(=O)* Where only a bound is given, the exact number is not on record here.

For `CCCCCCCCCCCC(=O)NCCCC[C@@H]1NC(=O)[C@H](Cc2ccc3ccccc3c2)NC(=O)[C@H](CC(N)=O)NC(=O)[C@H](CC2CCNCC2)NC(=O)[C@@H](NC(=O)[C@@H](NC(=O)[C@@H](NC(=O)[C@H](Cc2c[nH]c3ccccc23)NC(C)=O)[C@@H](C)O)[C@@H](C)CC)CSSC[C@@H](C(=O)N[C@@H](Cc2c[nH]c3ccccc23)C(=O)N2CCC[C@H]2C(=O)N[C@H](CCCCNC(=O)CN2CCN(CC(=O)O)CCN(CC(=O)O)CCN(CC(=O)O)CC2)C(N)=O)NC(=O)[C@H](CC(=O)O)NC1=O` [compound 326, Ac-W-T-I-C(3)-[3-(4-piperidinyl)-Ala]-N-(2Nal)-K(C12)-D-C(3)-W-P-[D-Lys(DOTA)]-NH2] (Ac-WTIC[Ala(piperidin-4-yl)]N[2Nal]K(Lauroyl)DCWP[dK](DOTA)-NH2; disulfide 4-10), the “% Internalization (out of bound fraction)” value in [1] is “C (%>50)”; in series [5], “B (25<%≤50)”. Also, the Kd (in general, the free concentration of one partner at which half of the binding sites on the other are occupied at equilibrium, for simple one-to-one binding) in [2] is 1 to 10 nM. The “% Binding” value in [3] and in series [4] was “A (%≤25)” throughout. In addition, the “kidney uptake (% IA/g)” value in [6] (kidney) is on record as “C (0 < % IA/g ≤ 10 in kidney)”. Also, in series [6] (tumor), the “tumor uptake (% IA/g)” value is “A (0 < % IA/g ≤ 5 in tumor)”.
With Ac-WTICNNWHDCWP[dK](DOTA)-NH2 (disulfide 4-10) [Cpd No. 23], the Kd was ≤ 10 nM in [7] and > 1 nM in series [8].
Take Ac-[Trp(5-F)]T[Cha]CNN[2Nal]HDC[Trp(7-aza)][Pro(trans-4-F)][dK](DOTA)-NH2 (disulfide 4-10) [Cpd No. 245]: the Kd in series [9] was < 1 nM.

These data come from patent US20250011368A1, “DLL3 TARGETING PEPTIDES AND CONSTRUCTS THEREOF” (MARIANA ONCOLOGY INC., priority 2023, published 2025).
